According to US5891924A, “Curcumin (diferuloylmethane) inhibition of NFκB activation” (Research Development Foundation, priority 1996, dated 1999):

Assays:
AP-1 = assay: EMSA of AP-1 transcription factor in curcumin-treated cells; type: cell-based, human; conditions: cells treated with different concentrations of curcumin 60 minutes at 37° C., FIG. 4
NF-κB [1] = assay: TNF-dependent NF-κB activation by electrophoretic mobility shift assay in ML-1a cells; type: cell-based, human
NF-κB [2] = assay: Binding of NF-κB to DNA, nuclear extracts from TNF-pre-activated cells incubated with curcumin, EMSA; set-up: species or system human; conditions: nuclear extracts from TNF-pre-activated cells incubated with curcumin 15 minutes, FIG. 2b
NF-κB [3] = assay: PMA- and H2O2-mediated activation of NF-κB in ML-1a cells, EMSA; type: cell-based, human; conditions: curcumin 50 μM 60 minutes preincubation, FIG. 3
Sp1 = assay: EMSA of Sp1 transcription factor in curcumin-treated cells; type: cell-based, human; conditions: cells treated with different concentrations of curcumin 60 minutes at 37° C., FIG. 4
p65 subunit of NF-κB = assay: Western blot for p65 level in cytoplasm and nucleus of TNF-treated ML-1a cells; type: cell-based, human
IκBα = assay: Western blot for TNF-induced phosphorylation and degradation of IκBα in ML-1a cells; type: cell-based, human; conditions: curcumin 50 μM 60 minutes pretreatment, TNF 0.1 nM different times, cytosolic fraction, FIG. 6A
Protocol: ML-1a (2×10^6 /ml) pretreated (for 60 minutes at 37° C.) with or without curcumin (50 μM) were incubated for different times with TNF (0.1 nM), and then assayed for IκBα (FIG. 6A) and for p65 (FIG. 6B) in cytosolic fractions by western blot analysis as described below. ML-1a (2×10^6 /ml) pretreated (for 60 minutes at 37° C.) with curcumin were incubated with TNF (0.1 nM) for 30 minutes. Nuclear and cytoplasmic extracts were assayed by western blot analysis for p65. The arbitrary units represent the relative amounts of the respective proteins as described below.
After the NF-κB activation reaction described above, postnuclear extracts were resolved on 10% SDS-polyacrylamide gels for IκBα. To determine p65 levels, nuclear and post nuclear (cytoplasmic) extracts were resolved on 8% SDS-polyacrylamide gels. After the gels, the proteins were electrotransferred to nitrocellulose filters, probed with a rabbit polyclonal antibody against IκBa or against p65, and detected by chemiluminescence (ECL-Amersham) (22). The bands obtained were quantitated using Personal Densitometer Scan v1.30 using Image Quanta software version 3.3 (Molecular Dynamics, Sunnyvale, Calif.).
The translocation of NF-κB to the nucleus is preceded by the phosphorylation and proteolytic degradation of IκBα (26). […]

NF-κB [4] = assay: Effect of reducing agents DTT and DMP on inhibition of TNF-induced NF-κB activation, EMSA; type: cell-based, human; conditions: DTT 100 μM or DMP 100 μM, curcumin 50 μM or PAO 2.4 μM, 60 minutes, then 0.1 nM TNF 30 minutes, FIG. 5

COc1cc(/C=C/C(=O)CC(=O)/C=C/c2ccc(O)c(OC)c2)ccc1O [curcumin, diferuloylmethane]
effect on DNA binding of AP-1 transcription factors (AP-1): down-modulated | inhibition of TNF response, pretreatment with curcumin (NF-κB [1]; 20 μM curcumin 60, 30 and 10 minutes prior to TNF 0.1 nM, TNF 30 minutes, FIG. 1b): inhibited only when cells were pretreated | inhibition of TNF response, cotreatment of cells with TNF and curcumin (NF-κB [1]; 20 μM curcumin added at the same time as TNF 0.1 nM, TNF 30 minutes, FIG. 1b): not effective | inhibition of NF-κB activation induced by 10 nM TNF (NF-κB [1]; 50 μM curcumin 60 minutes pretreatment, 10 nM TNF for different times, FIG. 1c): completely inhibit | activation of NF-κB by the compound by itself (NF-κB [1]; ML-1a cells, without TNF, EMSA): did not activate | effect on the ability of NF-κB to bind to the DNA (NF-κB [2]): did not modify | inhibition of hydrogen peroxide-induced activation of NF-κB (NF-κB [3]; H2O2 0.5 mM 30 minutes): completely blocked | inhibition of PMA-induced activation of NF-κB (NF-κB [3]; PMA 25 ng/ml 30 minutes): completely blocked | effect on the Sp1 transcription factor (Sp1): no effect | effect on TNF-dependent change in nuclear and cytoplasmic p65 levels (translocation of p65 to the nucleus) (p65 subunit of NF-κB; curcumin 50 μM 60 minutes pretreatment, TNF 0.1 nM, FIGS. 6B and 6C): abolished | down-modulation of the cytoplasmic pool of p65 subunit of NF-κB (p65 subunit of NF-κB; curcumin-treated ML-1a cells, western blot): not down-modulated | effect on TNF-induced phosphorylation and degradation of IκBα (IκBα): abolished | reversal by DTT and DMP of the inhibition of TNF-induced NF-κB activation (NF-κB [4]): did not reverse
